Test results taken from patent US20230129095A1, “PEPTIDE INHIBITORS OF INTERLEUKIN-23 RECEPTOR AND THEIR USE TO TREAT INFLAMMATORY DISEASES” (Protagonist Therapeutics, Inc., priority 2020, published 2023).
*1 amine or outer side, *2 acyl side, *3 side chain or, on linkers, in order; H or OH if unused. Where a SMILES comes first, the peptide text is derived from it. Bridges are numbered along the chain shown (N, C = ends). [ ]: non-standard residue; d: D form. X6 = O=C([C@H](Cc1c[nH]c2c(-c3cccc(OC(F)(F)F)c3)cccc12)N[*:1])[*:2]; X7 = O=C([C@H](Cc1c[nH]c2cc(-c3ccccc3)ccc12)N[*:1])[*:2]; Trp(7-Ph) = N[C@@H](Cc1c[nH]c2c(-c3ccccc3)cccc12)C(=O)O; Ala(quinolin-3-yl) = N[C@@H](Cc1cnc2ccccc2c1)C(=O)O; 2Nal = N[C@@H](Cc1ccc2ccccc2c1)C(=O)O; Trp(7-thienyl) = 7-thienyl-tryptophan; AEF = NCCOc1ccc(C[C@H](N)C(=O)O)cc1; Pen = CC(C)(S)[C@H](N)C(=O)O; αMeK = C[C@](N)(CCCCN)C(=O)O; Abu = CC[C@H](N)C(=O)O

Assays:
[1] = Stability in human fecal homogenate (anaerobic); assay type: in vitro ADME; conditions: pH 6.8, 20% human fecal homogenate, 37° C., up to 24 hours, read-out: t1/2: Human Feces anaerobic
Experimental: (§1) Studies were carried out in human or cynomolgus monkey fecal homogenate to evaluate gastrointestinal stability of the peptide inhibitors of the present invention.
(§2) Fecal homogenate ([…]) was prepared by adding 4 mL of growth medium (1 liter contains 2 g peptone water powder, 2 g yeast extract, 0.1 g NaCl, 0.04 g KH2PO4, 0.01 g CaCl2.6H2O, 0.01 g MgSO4.7H2O, 2 mL Tween 80, 0.5 g bile salts, 0.5 g L-cysteine HCl, 2 g NaHCO3, and 10 μL Vitamin K, pH adjusted to 6.8, and sterilized by filtration through a 0.22 μm filter) to every gram of feces (pooled freshly collected human or cynomolgus monkey feces). The suspension was vortexed to break up large clumps, and homogenized using a bead mill homogenizer. Centrifuged the homogenate at 2800×g for 15 min. The supernatant is taken out and used for incubations. DMSO stocks (10 mM) were first prepared for the test compounds. Incubations were performed in an anaerobic chamber conditioned at 37° C. Aliquots of the DMSO solutions were dosed into 1.0 mL aliquots of 20% fecal homogenate, which are pre-warmed to 37° C. The final test compound concentration was 20 μM. At each timepoint (0, 20 min, 1, 3, 6, or 24 hours), 100 μL aliquot of each incubation mixture is taken out and added to separate tubes containing 300 μL of 50% acetonitrile/50% methanol and an internal standard to terminate the reaction. Samples were taken out of the anaerobic chamber and stored at 4° C. until the end of the experiment. After the final timepoint is sampled, the tubes were mixed and then centrifuged at 3,000 rpm for 10 minutes. Aliquots of the supernatant were removed, diluted 1:1 into distilled water containing 0.1% formic acid, and analyzed by LC/MS/MS. Percent remaining at each timepoint was calculated based on the peak area response ratio of test to compound to internal standard. Time 0 was set to 100%, and all later timepoints were calculated relative to time 0. Half-lives were calculated by fitting to a first-order exponential decay equation using Graphpad or Excel.

[2] = tested on: Natural killer (NK) cells; assay type: cell-based, human
Description: Where not shown, data was not yet determined.

Stability in rat plasma = assay type: in vitro ADME; conditions: both sexes, SD rat plasma, EDTA, 37° C., up to 24 hours, read-out: t1/2: Rat Plasma EDTA
Experimental: Peptides of interest (20 μM) were incubated with pre-warmed rat plasma (SD rat, mixed gender pooled, EDTA, filtered through 0.22 μm, BioreclamationIVT) at 37° C. Aliquots were taken at various time points up to 24 hours (e.g. 0, 0.25, 1, 3, 6 and 24 hr), and immediately quenched with 4 volumes of organic solvent (acetonitrile/methanol (1:1) and 0.1% formic acid, containing 1 μM internal standard). Quenched samples were stored at 4° C. until the end of the experiment and centrifuged at 4,000 rpm for 10 minutes. The supernatant were diluted 1:1 with deionized water and analyzed using LC-MS. Percentage remaining at each time point was calculated based on the peak area ratio (analyte over internal standard) relative to the initial level at time zero. Half-lives were calculated by fitting to a first-order exponential decay equation using GraphPad.

[3] = Stability in simulated intestinal fluid (SIF); assay type: in vitro ADME; conditions: 37° C.; for SIF t1/2: 100 fold dilution of standard SIF concentration, 20 μM
Experimental: Studies were carried out in simulated intestinal fluid (SIF) and simulated gastric fluid (SGF) to evaluate gastric stability of the peptide inhibitors of the present invention. In addition, studies were carried out to assess redox stability of the peptide inhibitors of the present invention.
SIF was prepared by adding 6.8 g of monobasic potassium phosphate and 10.0 g of pancreatin to 1.0 L of water. After dissolution, the pH was adjusted to 6.8 using NaOH. DMSO stocks (2 mM) were first prepared for the test compounds. Aliquots of the DMSO solutions were dosed into 6 individual tubes, each containing 0.5 mL of SIF, which is pre-warmed to 37° C. The final test compound concentration was 20 μM. The vials were kept in a benchtop Thermomixer® for the duration of the experiment. At each timepoint (0, 5, 10, 20, 40, 60, or 360 minutes or 24 hours), 1.0 mL of acetonitrile containing 1% formic acid was added to one vial to terminate the reaction. Samples were stored at 4° C. until the end of the experiment. After the final timepoint is sampled, the tubes were mixed and then centrifuged at 3,000 rpm for 10 minutes. Aliquots of the supernatant were removed, diluted 1:1 into distilled water containing internal standard, and analyzed by LCMS/MS. Percent remaining at each timepoint was calculated based on the peak area response ratio of test to compound to internal standard. Time 0 was set to 100%, and all later timepoints were calculated relative to time 0. Half-lives were calculated by fitting to a first-order exponential decay equation using Graphpad.

[4] = Stability in cynomolgus monkey fecal homogenate (anaerobic); assay type: in vitro ADME; conditions: pH 6.8, 20% cynomolgus monkey fecal homogenate, 37° C., up to 24 hours, read-out: t1/2: Monkey Feces anaerobic (converted)
Experimental: as §1, §2

[5] = target: T1, interleukin-23 receptor (IL-23R), human (human, UniProt Q5VWK5 24-629); assay: cell-based or functional assay
T1 sequence (looked up): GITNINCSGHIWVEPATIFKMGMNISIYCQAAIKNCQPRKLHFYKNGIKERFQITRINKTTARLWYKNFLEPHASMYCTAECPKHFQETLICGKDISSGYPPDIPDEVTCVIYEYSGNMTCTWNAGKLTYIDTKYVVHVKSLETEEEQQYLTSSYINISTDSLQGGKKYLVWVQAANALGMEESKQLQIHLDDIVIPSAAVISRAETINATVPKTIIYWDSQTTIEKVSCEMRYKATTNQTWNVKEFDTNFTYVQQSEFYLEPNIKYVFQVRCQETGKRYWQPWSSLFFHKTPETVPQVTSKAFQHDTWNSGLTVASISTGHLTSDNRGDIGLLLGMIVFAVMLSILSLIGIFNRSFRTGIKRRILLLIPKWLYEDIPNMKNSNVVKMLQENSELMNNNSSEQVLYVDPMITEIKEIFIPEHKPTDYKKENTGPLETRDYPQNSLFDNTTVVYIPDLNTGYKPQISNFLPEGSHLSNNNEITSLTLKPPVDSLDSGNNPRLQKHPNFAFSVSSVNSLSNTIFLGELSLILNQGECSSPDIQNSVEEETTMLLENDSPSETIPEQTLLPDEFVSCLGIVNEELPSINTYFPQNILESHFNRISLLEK

[6] = 20% fecal homogenate (supernatant)

Molecule: CC(=O)NCCCC[C@@H]1NC(=O)[C@H](Cc2c[nH]c3c(-c4ccccc4)cccc23)NC(=O)[C@H]([C@@H](C)O)NC(=O)[C@H](CC(N)=O)NC(=O)[C@@H](NC(C)=O)C(C)(C)SSC(C)(C)[C@@H](C(=O)N[C@@H](Cc2ccc(OCCN)cc2)C(=O)N[C@@H](Cc2cnc3ccccc3c2)C(=O)N[C@@](C)(CCCCN)C(=O)N[C@@H](CCCCNC(C)=O)C(=O)N[C@@H](CC(N)=O)C(=O)N[C@H](CCCCN)C(N)=O)NC1=O [Peptide 14, Ac-[Pen]-N-T-[W(7-Ph)]-[Lys(Ac)]-[Pen]-Phe[4-(2-aminoethoxy)]-[3Quin]-[a-MeLys]-[Lys(Ac)]-N-[(D)Lys]-NH2] (Ac-[Pen]NT[Trp(7-Ph)]K(Ac)[Pen][AEF][Ala(quinolin-3-yl)][αMeK]K(Ac)N[dK]-NH2; disulfide 1-6)
- half-life at 20 μM [1, 6]: > 1440 min
- IC50 [2]: 2.41 nM
- half-life at 20 μM (Stability in rat plasma): > 1440 min
- SIF t1/2 [3]: 24 h
- half-life at 20 μM [4, 6]: > 1440 min

Molecule: CC(=O)NCCCC[C@@H]1NC(=O)[C@H](Cc2c[nH]c3c(-c4ccccc4)cccc23)NC(=O)[C@H]([C@@H](C)O)NC(=O)[C@H](CC(N)=O)NC(=O)[C@@H](NC(C)=O)C(C)(C)SSC(C)(C)[C@@H](C(=O)N[C@@H](Cc2ccc(OCCN)cc2)C(=O)N[C@@H](Cc2ccc3ccccc3c2)C(=O)N[C@@](C)(CCCCN)C(=O)N[C@@H](CCCCNC(C)=O)C(=O)N[C@@H](CC(N)=O)C(=O)N[C@H](CC(C)C)C(N)=O)NC1=O [Peptide 1, Ac-[Pen]-N-T-[W(7-Ph)]-[Lys(Ac)]-[Pen]-Phe[4-(2-aminoethoxy)]-[2-Nal]-[a-MeLys]-[Lys(Ac)]-N-[(D)Leu]-NH2]
- half-life at 20 μM [1]: > 1440 min
- IC50 [2]: 4.3 nM
- half-life at 20 μM (Stability in rat plasma; pooled): > 1440 min
- half-life at 20 μM ([3]; pH 6.8, 100 fold dilution of standard SIF concentration, read-out: SIF t1/2 (converted)): 664 min
- half-life at 20 μM [4]: > 1440 min

Molecule: CC(=O)NCCCC[C@@H]1NC(=O)[C@H](Cc2c[nH]c3cc(-c4ccccc4)ccc23)NC(=O)[C@H]([C@@H](C)O)NC(=O)[C@H](CC(N)=O)NC(=O)[C@@H](NC(C)=O)C(C)(C)SSC(C)(C)[C@@H](C(=O)N[C@@H](Cc2ccc(OCCN)cc2)C(=O)N[C@@H](Cc2ccc3ccccc3c2)C(=O)N[C@@](C)(CCCCN)C(=O)N[C@@H](CCCCNC(C)=O)C(=O)N[C@@H](CC(N)=O)C(=O)N[C@H](CCCCN)C(N)=O)NC1=O [Peptide 6, Ac-[Pen]-N-T-[W(6-Ph)]-[Lys(Ac)]-[Pen]-Phe[4-(2-aminoethoxy)]-[2-Nal]-[a-MeLys]-[Lys(Ac)]-N-[(D)Lys)]-NH2] (Ac-[Pen]NT[X7]K(Ac)[Pen][AEF][2Nal][αMeK]K(Ac)N[dK]-NH2; disulfide 1-6)
- half-life at 20 μM [1]: > 1440 min
- half-life at 20 μM (Stability in rat plasma; pooled): > 1440 min
- SIF t1/2 [3]: 24 h
- half-life at 20 μM [4]: > 1440 min

Molecule: CC(=O)NCCCC[C@@H]1NC(=O)[C@H](Cc2c[nH]c3c(-c4cccc(OC(F)(F)F)c4)cccc23)NC(=O)[C@H]([C@@H](C)O)NC(=O)[C@H](CC(N)=O)NC(=O)[C@@H](NC(C)=O)C(C)(C)SSC(C)(C)[C@@H](C(=O)N[C@@H](Cc2ccc(OCCN)cc2)C(=O)N[C@@H](Cc2ccc3ccccc3c2)C(=O)N[C@@](C)(CCCCN)C(=O)N[C@@H](CCCCNC(C)=O)C(=O)N[C@@H](CC(N)=O)C(=O)N[C@H](CCCCN)C(N)=O)NC1=O [Peptide 12, Ac-[Pen]-N-T-[W(7-(3-OCF3Ph))]-[Lys(Ac)]-[Pen]-Phe[4-(2-aminoethoxy)]-[2-Nal]-[a-MeLys]-[Lys(Ac)]-N-[(D)Lys)]-NH2] (Ac-[Pen]NT[X6]K(Ac)[Pen][AEF][2Nal][αMeK]K(Ac)N[dK]-NH2; disulfide 1-6)
- half-life at 20 μM [1]: > 1440 min
- half-life at 20 μM (Stability in rat plasma; pooled): > 1440 min
- SIF t1/2 [3]: 24 h
- half-life at 20 μM [4]: > 360 min

Molecule: Ac-[dR][Abu]QT[Trp(7-Ph)]K(Ac)C[AEF][2Nal][αMeK]K(Ac)N[dK]-NH2 (thioether 2-7) [Peptide No. 5 (SEQ ID No. 5)]
- pStat3 HTRF IC50 (DB cells IL23R pSTAT3 cell assay, 0.5 nM IL-23) [5]: 8.53 nM

Molecule: Ac-[Abu]QT[Trp(7-Ph)]K(Ac)C[AEF][2Nal][αMeK]K(Ac)N[dK]-NH2 (thioether 1-6) [Peptide No. 19 (SEQ ID No. 19)]
- pStat3 HTRF IC50 (DB cells IL23R pSTAT3 cell assay, 0.5 nM IL-23) [5]: 2.57 nM

Molecule: Ac-[dR][Abu]QT[Trp(7-Ph)]K(Ac)C[AEF][2Nal][αMeK]K(Ac)N[dL]-NH2 (thioether 2-7) [Peptide No. 3 (SEQ ID No. 3)]
- pStat3 HTRF IC50 (DB cells IL23R pSTAT3 cell assay, 0.5 nM IL-23) [5]: 9.42 nM

Molecule: Ac-[Pen]NT[Trp(7-thienyl)]Q[Pen][AEF][2Nal][αMeK]K(Ac)N[dK]-NH2 (disulfide 1-6) [Peptide No. 2 (SEQ ID No. 2)]
- pStat3 HTRF IC50 (DB cells IL23R pSTAT3 cell assay, 0.5 nM IL-23) [5]: 1.21 nM

Molecule: Ac-[dR][Abu]QT[Trp(7-Ph)]K(Ac)C[AEF][2Nal][αMeK]K(Ac)N-NH2 (thioether 2-7) [Peptide No. 4 (SEQ ID No. 4)]
- pStat3 HTRF IC50 (DB cells IL23R pSTAT3 cell assay, 0.5 nM IL-23) [5]: 49.4 nM
